# Measurements published in ChEMBL document CHEMBL1201862, “PubChem BioAssay data set” (2004).
# Structures can show the parent of a compound that is named as a salt. Active and inactive are the calls of the source.
# Key:
# [1] = Luminescence Cell-Based Dose Response HTS to Identify Activators of Luciferase Translation or Activity in H4 […] Cells. [Related pubchem assays: 1829 (Project Summary), 1814 (Primary HTS)]; type: functional
# [2] = test system: H4; experiment: Luminescence Cell-Based Dose Response HTS to Identify Activators of 5'UTR Stem-Loop Driven Prion Protein mRNA Translation in H4 Neuroglioblastoma Cells. [Related pubchem assays: 1829 (Project Summary), 1814 (Primary HTS)]; type: functional; conditions: Homo sapiens
# [3] = Luminescence Cell-Based Dose Confirmation HTS to Identify Activators of 5'UTR Stem-Loop Driven Alpha-Synuclein mRNA Translation in H4 Neuroglioblastoma Cells. [Related pubchem assays: 1829 (Project Summary), 1814 (Primary HTS)]; type: functional
# [4] = biological target: Cytochrome P450 2D6 (Homo sapiens, UniProt P10635)
# Cytochrome P450 2D6, sequence (P10635 whole entry): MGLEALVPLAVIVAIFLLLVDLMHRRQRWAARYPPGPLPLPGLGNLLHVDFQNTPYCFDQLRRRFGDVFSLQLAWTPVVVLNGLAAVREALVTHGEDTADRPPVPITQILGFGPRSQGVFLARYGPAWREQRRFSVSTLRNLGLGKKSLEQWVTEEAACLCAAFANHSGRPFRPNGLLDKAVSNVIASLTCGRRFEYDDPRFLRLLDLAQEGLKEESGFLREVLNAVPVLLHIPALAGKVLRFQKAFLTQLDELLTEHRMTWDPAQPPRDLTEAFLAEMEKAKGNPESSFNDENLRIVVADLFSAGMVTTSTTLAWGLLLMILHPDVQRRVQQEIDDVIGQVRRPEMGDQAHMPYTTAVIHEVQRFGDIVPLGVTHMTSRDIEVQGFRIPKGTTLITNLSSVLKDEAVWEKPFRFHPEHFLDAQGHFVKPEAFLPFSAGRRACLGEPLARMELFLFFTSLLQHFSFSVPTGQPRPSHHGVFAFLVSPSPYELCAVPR
# [5] = biological target: Cytochrome P450 2C9 (Homo sapiens, UniProt P11712)
# Cytochrome P450 2C9, sequence (P11712 whole entry): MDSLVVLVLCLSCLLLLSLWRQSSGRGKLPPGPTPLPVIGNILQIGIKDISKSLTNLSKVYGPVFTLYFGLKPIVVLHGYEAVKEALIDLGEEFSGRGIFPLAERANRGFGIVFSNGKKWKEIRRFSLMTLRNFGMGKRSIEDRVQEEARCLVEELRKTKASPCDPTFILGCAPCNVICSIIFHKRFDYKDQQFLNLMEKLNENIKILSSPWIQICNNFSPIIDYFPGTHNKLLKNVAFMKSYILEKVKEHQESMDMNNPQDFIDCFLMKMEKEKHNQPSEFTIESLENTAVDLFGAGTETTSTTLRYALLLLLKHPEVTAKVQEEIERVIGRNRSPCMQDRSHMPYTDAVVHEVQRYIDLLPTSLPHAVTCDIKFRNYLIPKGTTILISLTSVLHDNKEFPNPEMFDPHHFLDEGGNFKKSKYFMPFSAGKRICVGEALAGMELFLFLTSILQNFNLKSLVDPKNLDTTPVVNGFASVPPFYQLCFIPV
# [6] = biological target: Cytochrome P450 2C19 (Homo sapiens, UniProt P33261); experiment: Cytochrome panel assay with activity outcomes. Panel member name: p450-cyp2c19 Compounds with AC50 equal or less than 10 uM are considered active; type: functional; conditions: read-out: AC50
# Cytochrome P450 2C19, sequence (P33261 whole entry): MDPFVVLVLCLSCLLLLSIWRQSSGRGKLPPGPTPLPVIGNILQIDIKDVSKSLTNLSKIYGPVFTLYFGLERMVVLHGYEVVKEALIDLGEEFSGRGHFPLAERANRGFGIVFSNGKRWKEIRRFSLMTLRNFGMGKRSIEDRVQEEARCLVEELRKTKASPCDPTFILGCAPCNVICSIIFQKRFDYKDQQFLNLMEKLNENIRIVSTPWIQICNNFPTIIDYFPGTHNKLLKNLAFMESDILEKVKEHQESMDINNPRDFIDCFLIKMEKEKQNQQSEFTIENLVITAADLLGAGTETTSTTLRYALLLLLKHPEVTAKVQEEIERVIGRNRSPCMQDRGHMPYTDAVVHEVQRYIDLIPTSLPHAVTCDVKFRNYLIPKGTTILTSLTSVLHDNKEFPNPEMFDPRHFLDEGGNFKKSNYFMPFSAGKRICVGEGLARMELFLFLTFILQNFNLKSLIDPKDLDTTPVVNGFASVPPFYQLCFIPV
# [7] = test system: H9c2; experiment: cells; type: functional, cell-based; conditions: Rattus norvegicus, H9c2, Myocardium;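 also: confirmatory concentration-response retest of ultra-high-throughput screening hits for modulation of myocardial damage; cell death induced by hydrogen peroxide oxidative stress; compound pretreatment for 60 min then peroxide exposure for 2 h; potency is for protecting the cells against peroxide damage rather than for killing them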
# [8] = fluconazole-exposed Candida albicans growth modulators – fluorescence, retest, confirmation (AID 2467); type: functional, cell-based
# [9] = cells; type: functional, cell-based
# [10] = NIH-3T3 fibroblast cytotoxicity, dose response, cytotoxicity control, cell-based, fluorescence, Alamar Blue, secondary assay (AID 2327); type: functional;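 also: NIH-3T3 mouse fibroblasts cultured with fluconazole at 8 µg/mL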
# [11] = cells; type: functional, cell-based; remark: listed apart in the source
# [12] = biological target: T1, RNA-binding protein pos-1 (Caenorhabditis elegans, UniProt G5EF15); experiment: disruptors of C. elegans POS-1 RNA interaction – biochemical, fluorescence polarization, dose response (AID 1964);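 also: purified POS-1 fused to maltose binding protein made in E. coli; potency of compounds blocking POS-1 binding to fluorescent RNA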
# T1 sequence (G5EF15 whole entry): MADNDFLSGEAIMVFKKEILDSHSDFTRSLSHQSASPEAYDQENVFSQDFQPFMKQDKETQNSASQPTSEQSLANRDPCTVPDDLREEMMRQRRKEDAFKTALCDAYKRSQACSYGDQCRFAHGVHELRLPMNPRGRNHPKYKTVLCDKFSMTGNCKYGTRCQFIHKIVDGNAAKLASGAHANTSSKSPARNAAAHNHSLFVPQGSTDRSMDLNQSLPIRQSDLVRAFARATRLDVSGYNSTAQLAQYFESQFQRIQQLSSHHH
# [13] = Trypanosoma cruzi growth suppression in host cells – NIH3T3 host cells, beta-gal luminescence, confirmation (AID 2044); type: functional, cell-based;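 also: intracellular parasites grown in NIH/3T3 mouse fibroblasts as host cells; luminescent beta-galactosidase reporter signal from transgenic T. cruzi replicating inside host cells; inhibitors lower the luminescence signal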
# [14] = biological target: Heat shock protein HSP 90-alpha (Homo sapiens, UniProt P07900); type: functional, organism-based
# [15] = NIH3T3 cell viability loss – ATP luminescence, mouse fibroblasts, counter-screen, dose response (AID 2010); type: functional, cell-based;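 also: cells exposed to compound for about 90 hours before reading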
# [16] = test system: P388; experiment: cells; type: functional; conditions: Mus musculus
# [17] = test system: SN12K1; experiment: cells; type: functional; conditions: Homo sapiens
# [18] = test system: P388/ADR; experiment: cells; type: functional; conditions: Mus musculus
# [19] = biological target: Cytochrome P450 3A4 (Homo sapiens, UniProt P08684);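 also: CYP3A4 tested as one member of a cytochrome P450 panel screen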
# Cytochrome P450 3A4, sequence (P08684 whole entry): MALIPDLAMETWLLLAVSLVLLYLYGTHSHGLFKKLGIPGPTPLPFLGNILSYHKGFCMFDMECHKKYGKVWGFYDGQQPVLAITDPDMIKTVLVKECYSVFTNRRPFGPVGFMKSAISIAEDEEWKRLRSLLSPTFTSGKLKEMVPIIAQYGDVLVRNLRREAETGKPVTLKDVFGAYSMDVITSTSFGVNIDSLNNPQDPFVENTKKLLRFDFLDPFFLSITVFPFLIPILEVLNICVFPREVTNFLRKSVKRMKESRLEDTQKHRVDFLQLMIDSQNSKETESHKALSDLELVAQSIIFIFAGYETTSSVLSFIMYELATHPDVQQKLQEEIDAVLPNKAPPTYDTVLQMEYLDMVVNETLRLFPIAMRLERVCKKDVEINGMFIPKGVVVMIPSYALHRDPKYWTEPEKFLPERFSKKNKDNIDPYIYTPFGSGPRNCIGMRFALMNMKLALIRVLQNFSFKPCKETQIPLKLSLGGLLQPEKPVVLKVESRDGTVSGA
# [20] = viability of uninfected HEp-2 cells – cell-based, HTS, cytotoxicity control for RSV inhibitor project, dose response (AID 2410); type: functional; conditions: human respiratory syncytial virus
# [21] = biological target: T2, Cytochrome P450 1A2 (Homo sapiens, UniProt P05177);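 also: PubChem cytochrome P450 panel assay, CYP1A2 panel member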
# T2 sequence (P05177 whole entry): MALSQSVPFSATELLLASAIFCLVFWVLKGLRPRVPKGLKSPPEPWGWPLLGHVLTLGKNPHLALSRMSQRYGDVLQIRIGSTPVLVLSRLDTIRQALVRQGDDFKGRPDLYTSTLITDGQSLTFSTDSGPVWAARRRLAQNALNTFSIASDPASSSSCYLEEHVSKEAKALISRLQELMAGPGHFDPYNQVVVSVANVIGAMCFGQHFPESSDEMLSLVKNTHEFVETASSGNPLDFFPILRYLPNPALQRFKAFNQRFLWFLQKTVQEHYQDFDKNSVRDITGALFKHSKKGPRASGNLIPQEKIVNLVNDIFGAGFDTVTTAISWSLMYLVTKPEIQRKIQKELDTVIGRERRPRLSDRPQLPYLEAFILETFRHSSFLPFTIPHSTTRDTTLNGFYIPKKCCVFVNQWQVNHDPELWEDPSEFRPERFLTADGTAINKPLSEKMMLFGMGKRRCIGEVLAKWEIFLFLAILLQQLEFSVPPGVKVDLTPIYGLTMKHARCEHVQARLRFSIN
# [22] = biological target: T3, Streptokinase A (Streptococcus pyogenes serotype M1, UniProt P10520); experiment: viability-normalized secreted streptokinase activity reduction – plasminogen activation absorbance, OD405, dose response (AID 1914); type: functional, Streptococcus pyogenes M1 GAS;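 also: secreted streptokinase activity via plasminogen activation per viability signal from cell pellet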
# T3 sequence (P10520 whole entry): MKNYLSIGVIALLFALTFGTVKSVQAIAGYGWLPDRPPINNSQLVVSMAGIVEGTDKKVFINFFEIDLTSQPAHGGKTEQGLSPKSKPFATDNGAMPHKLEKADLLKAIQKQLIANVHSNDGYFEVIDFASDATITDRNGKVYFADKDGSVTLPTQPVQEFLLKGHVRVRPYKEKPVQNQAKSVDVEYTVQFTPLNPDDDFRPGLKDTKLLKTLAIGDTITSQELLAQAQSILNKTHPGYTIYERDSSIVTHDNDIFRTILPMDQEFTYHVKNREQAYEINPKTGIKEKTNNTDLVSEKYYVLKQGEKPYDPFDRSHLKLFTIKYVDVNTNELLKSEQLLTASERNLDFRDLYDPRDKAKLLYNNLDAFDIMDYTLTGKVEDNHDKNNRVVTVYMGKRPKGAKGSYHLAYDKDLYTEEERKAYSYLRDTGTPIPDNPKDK
# [23] = test system: Streptococcus sp. 'group A'; experiment: Streptococcus pyogenes SK(-)GAS viability under kanamycin – luminescence, BacTiterGlo, confirmation, counter-screen for streptokinase expression inhibitor project, dose response (AID 1900); type: functional, organism-based; conditions: read-out: EC50
# [24] = test system: Streptococcus; experiment: GAS UMAA2166 growth inhibition – luminescence, BacTiterGlo, counter-screen for streptokinase expression inhibitor project, dose response (AID 1915); type: functional, organism-based;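 also: potency for reduction of bacterial viability or growth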
compound,measurement,setting,value
CC(C)n1nnnc1SCC(=O)c1ccc2c(c1)OCCO2,EC50,[1],0.624 µM (active)
same,EC50,[2],> 120 µM (not active)
same,EC50,[3],0.276 µM (active)
same,AC50,[4],14.1 µM (inconclusive)
same,AC50,[5],17.8 µM (inconclusive)
COc1ccc(/C=C2\N=C(c3c(-c4ccccc4)noc3C)OC2=O)cc1OC,AC50,[6],28.2 µM (inconclusive)
same,AC50,[4],20 µM (inconclusive)
same,AC50,[5],1 µM (inconclusive)
CCOC(=O)C1C(=O)NC(SCC(=O)OC)=C(C#N)C1c1ccccc1OCC (configuration not stated),IC50,[7],67.2 µM (inactive)
COc1cccc(/C=N/Nc2cc(-n3nc(C)cc3-c3ccccc3)ncn2)c1O,EC50,[8],1.57 µM (active)
same,EC50,[9],> 350 µM (not active)
same,EC50,[10],61 µM (active)
same,EC50,[11],> 350 µM (not active)
CCOc1ccc(N2C(=O)/C(=C/c3ccco3)C(=O)NC2=S)cc1,EC50,[12],55.3 µM (active)
O=C(Nc1cc(Cl)ccc1-n1cncn1)c1ccc([N+](=O)[O-])s1,EC50,[13],0.207 µM (active)
same,AC50,[14],3.72 µM (active)
same,EC50,[15],> 60 µM (not active)
Nc1nncs1,GI50,[16],711 µM (inactive)
same,GI50,[17],2120 µM (inactive)
same,GI50,[18],665 µM (inactive)
COc1cc(/C=C/C(=O)Oc2ccccc2)ccc1C(=O)O/C=C/c1ccccc1,GI50,[16],3.78 µM (inactive)
same,GI50,[17],> 100 µM (inactive)
same,GI50,[18],0.83 µM (active)
O=C1c2ccccc2NC(c2c[nH]nc2-c2ccccc2)N1O (configuration not stated),IC50,[7],20.8 µM (active)
CCCN1C(=O)C(NC(C)=O)c2cc(OC)ccc21 (configuration not stated),AC50,[6],22.4 µM (inconclusive)
same,AC50,[19],22.4 µM (inconclusive)
same,AC50,[4],0.00562 µM (inconclusive)
O=C(CCN1CCOCC1)/C(=C/c1ccccc1)c1ccccc1,GI50,[16],2.29 µM (inactive)
same,GI50,[17],3.03 µM (inactive)
same,GI50,[18],1.11 µM (active)
CC(C)NC(=O)OCc1c(COC(=O)NC(C)C)c(-c2ccc(Cl)c(Cl)c2)n2c1CCC2,GI50,[16],> 100 µM (inactive)
same,GI50,[17],> 100 µM (inactive)
same,GI50,[18],> 100 µM (inactive)
CCCCCN(C(=O)CCC(=O)OCC(=O)c1ccc(C(C)CC)cc1)c1c(N)n(CCCC)c(=O)[nH]c1=O (configuration not stated),EC50,[9],> 350 µM (not active)
same,EC50,[11],> 350 µM (not active)
CSc1nnc2c3cc(F)ccc3n(C)c2n1,CC50,[20],30 µM (active)
same,AC50,[14],5.56 µM (active)
Cc1nc(O)nc(O)c1/C=C/C(=O)O,GI50,[16],631 µM (inactive)
same,GI50,[17],> 1000 µM (inactive)
same,GI50,[18],> 1000 µM (inactive)
CN(C)c1nc(-c2cccc(NS(C)(=O)=O)c2)nc2ccccc12,AC50,[6],20 µM (inconclusive)
same,AC50,[4],25.1 µM (inconclusive)
CC1=C2C(O)C(C(C)C(=O)N(C)C)CCC2(C)C=CC1=O (configuration not stated),GI50,[16],> 100 µM (inactive)
same,GI50,[17],> 100 µM (inactive)
same,GI50,[18],> 100 µM (inactive)
CC1C(=O)C(C)C(c2ccco2)N(N=O)C1c1ccco1 (configuration not stated),GI50,[16],> 100 µM (inactive)
same,GI50,[17],> 100 µM (inactive)
same,GI50,[18],63.4 µM (inactive)
COc1ccc(S(=O)(=O)N(C(=O)c2ccncc2)c2ccc(OC(=O)c3ccncc3)cc2)cc1,AC50,[14],1.65 µM (active)
Cc1cccc(C(=O)N/N=C2\CS(=O)(=O)N(C)c3ccsc32)c1,IC50,[7],> 79 µM (inactive)
CC1CCCN(Cc2nc3c(c(=O)n(C)c(=O)n3C)n2CCCc2ccccc2)C1 (configuration not stated),IC50,[7],12.4 µM (active)
Cc1cc(NC(=S)Nc2ccccc2)c(NC(=S)Nc2ccccc2)cc1C,GI50,[16],1.41 µM (inactive)
same,GI50,[17],18.5 µM (inactive)
same,GI50,[18],3.3 µM (inactive)
CCCc1cc2c(n1Cc1ccc(OC)cc1)C(C)C1CN(C(=O)c3ccccc3)C(C)(C(=O)OC)C21 (configuration not stated),AC50,[21],15.8 µM (inconclusive)
same,AC50,[6],0.00631 µM (inconclusive)
same,AC50,[4],39.8 µM (inconclusive)
Cc1ccc(C(=O)CSc2cc(C)nc(O)n2)cc1,EC50,[9],> 350 µM (not active)
same,EC50,[11],> 350 µM (not active)
CC1(C)CC(=O)C(CC2C(=O)CC(C)(C)CC2=O)C(=O)C1,EC50,[9],98.1 µM (active)
same,EC50,[11],> 350 µM (not active)
COc1ccccc1CCn1c(=O)c(-c2ccc(F)c(F)c2)nc2cncnc21,AC50,[4],31.6 µM (inconclusive)
Cc1ccc2nc(-c3ccc(NS(=O)(=O)c4ccc(F)cc4)cc3)sc2c1,EC50,[22],> 150 µM (not active)
same,AC50,[14],4.57 µM (active)
same,EC50,[23],3.12 µM (active)
same,EC50,[24],5.33 µM (active)
N=C(NOC(=O)C(c1ccccc1)c1ccccc1)c1cccnc1,EC50,[9],> 350 µM (not active)
same,EC50,[11],> 350 µM (not active)
Cc1oc(-c2ccc(Cl)cc2)nc1C[S+]([O-])CC(=O)NCCN1CCCCCC1 (configuration not stated),EC50,[9],> 350 µM (not active)
same,EC50,[11],> 350 µM (not active)
COc1ccc2nc(NC(=O)CSc3nccc(C)n3)sc2c1,EC50,[9],> 350 µM (not active)
same,EC50,[11],> 350 µM (not active)
c1ccc(-c2ccc(N3CC[C@@]4(CCCNC4)C3)cc2)cc1,AC50,[6],20 µM (inconclusive)
same,AC50,[4],39.8 µM (inconclusive)
CC(=O)c1ccc(-c2cnc3c(NC=O)cc(-c4ccc(C(=O)NC5CC5)cc4)cn23)cc1,IC50,[7],> 79 µM (inactive)
CC[C@]1(O)C[C@H]2CN(CCc3c([nH]c4ccccc34)[C@@](C(=O)OC)(c3cc4c(cc3OC)N(C=O)[C@H]3[C@@](O)(C(=O)OC)[C@H](OC(C)=O)[C@]5(CC)C=CCN6CC[C@]43[C@@H]65)C2)C1 [VINCRISTINE SULFATE],GI50,[16],0.1 µM (active)
same,GI50,[17],0.1 µM (active)
same,GI50,[18],0.171 µM (active)
COC(=O)[C@@]1(Cc2ccccc2)[C@H]2c3cc(C(=O)N(C)C)n(Cc4cc(F)c(F)c(F)c4)c3C[C@H]2CN1C(=O)c1ccccc1,AC50,[4],25.1 µM (inconclusive)
COc1ccc(-c2nn(-c3ccccc3)cc2C(=O)N2CCN(S(=O)(=O)c3cccc(F)c3)CC2)cc1,AC50,[14],2.04 µM (active)
Oc1ccc(Cl)cc1CNCC1CCCO1 (configuration not stated),EC50,[9],> 350 µM (not active)
same,EC50,[11],> 350 µM (not active)
CC(C(=O)N1CCOCC1)N1c2cccc3cccc(c23)S1(=O)=O (configuration not stated),EC50,[9],> 350 µM (not active)
same,EC50,[11],> 350 µM (not active)
CCCCCC(O)C1C(=O)OC(C)C(O)/C=C/C=C/C=C/C=C/C=C(\C)C(O)C(O)C(O)CC(O)CC(O)CC(O)CC(O)CC1O (configuration not stated),GI50,[16],0.904 µM (active)
same,GI50,[17],1.44 µM (inactive)
same,GI50,[18],1.95 µM (inactive)
